{"source": "patent US9066865B2", "about": "“Pharmaceutical compositions for the treatment of inner ear disorders” (AURIS MEDICAL AG, priority 2005, dated 2015)", "key": {"[1]": {"assay": "pharmacokinetic study: Ketamine in perilymph after 2.8% hyaluronic acid gel on the round window membrane", "type": "in vivo", "settings": "1 mM, guinea pig", "procedure": "In a second step, a pharmacokinetic study with pigmented guinea pigs was carried out in order to evaluate in vivo the diffusion of Ketamine from a hyaluronic acid gel formulation across the round window membrane into the inner ear. A total of 30 animals were tested for concentrations of the pharmaceutical compound in the perilymph at 1 hour, 3 hours, 8 hours, 24 hours and 72 hours following gel administration; 6 animals per time point were tested.\nAnimals were anaesthetized with a single-dose i.p. injection of 0.3 ml/kg of pentobarbital at 6% (Ceva sante animale), and the right ear bulla was opened using a posterior auricular surgical procedure (dorsal approach). 2 microliters of the hyaluronic gel formulation (2.8% Hylumed Sterile in artificial perilymph, molecular weight 2.44 million; Genzyme Corp.) with S-(+)-Ketamine (Sigma-Aldrich) at a concentration of 1 milliM were then deposited onto the round window membrane of the inner ear. At each of the aforementioned time points, one group of animals was decapitated under deep anaesthesia (pentobarbital 50 mg/kg). […] The samples were then analyzed by liquid chromatography mass spectrometry with a limit of quantification of 0.2 ng/ml (HPLC instrument: Perkin Elmer series 200; mass spectrometer detector: MSD Sciex API 4000 Applied Biosystems; column: Zorbax SB CN 50×2.1 mm 5 μm-Agilent technologies)."}, "[2]": {"test_system": "PCP binding site of the NMDA receptor", "settings": "relative to (R)-ketamine; cited from earlier work"}, "[3]": {"assay": "in vitro release of Ketamine from hyaluronic acid gel into PBS (without membrane or Franz cell with filter/dialysis membrane)", "type": "physicochemical", "procedure": "A hyaluronic acid solution (Hylumed, Genzyme Corp.) was prepared at concentrations of 5 and 7.5% in phosphate buffered saline (PBS). At 8%, handling of the gel had shown to be difficult due to the high viscosity. S-(+)-Ketamine hydrochloride (Sigma-Aldrich) was dissolved at a concentration of 2% (weight/weight) equivalent to 73 mM. To evaluate the importance of the drug load factor, concentrations of 0.5% and 2.5% were also tested. Release of the pharmacologically active agent was measured in PBS, a common receiver fluid for controlled release studies, either without any membrane or by using a filter membrane or a dialysis membrane (Spectropore) in a Franz cell (PermeGear). The membranes were employed to mimic the rate limiting membrane of the round window. The temperature of the fluid was maintained constant at body temperature. The bottom chamber of the Franz cell was filled with 5 ml of PBS as the receiver fluid. The receiver fluid contained a stir bar for continuous agitation. The upper chamber was filled with approximately 50 mg of gel and the cell assembled. At various time points, aliquots (typically 1 ml) were withdrawn and analyzed by UV spectrophotometry (Agilent 8453). The absorbance at 215 nm was measured and the concentration calculated using an extinction coefficient of 30 ml/mg cm. As the volume of the aliquot was known, the total amount released could be determined. Each time an aliquot was withdrawn, the same volume of PBS was placed back into the Franz cell chamber."}}, "data": [{"smiles": "CN[C@@]1(c2ccccc2Cl)CCCCC1=O", "note": "(stereo in doubt) [Ketamine, 2-(2-chlorophenyl)-2-(methylamino)-cyclohexanone]", "values": [{"measurement": "time to maximum concentration of Ketamine in perilymph", "setting": "[1]; 2 microliters on round window membrane", "result": "within one hour"}, {"measurement": "last quantifiable levels in perilymph", "setting": "[1]; LOQ 0.2 ng/ml", "result": "after three days"}, {"measurement": "higher affinity to the PCP binding site of the NMDA receptor than (R)-ketamine", "setting": "[2]", "result": "3-4 fold"}, {"measurement": "release rate at 7.5% hyaluronic acid compared with 5%", "setting": "[3]; 7.5% hyaluronic acid gel, rate limiting membrane", "result": "less quickly than at 5%"}, {"measurement": "duration of release of Ketamine into PBS", "setting": "[3]; Franz cell with dialysis membrane", "result": "about three days"}, {"measurement": "duration of release of Ketamine into PBS", "setting": "[3]; Franz cell with filter membrane", "result": "approximately 60 hours"}, {"measurement": "release speed compared with Ketamine hydrochloride solution", "setting": "[3]; gel with 0.5% Ketamine by weight, Franz cell with filter membrane", "result": "nearly as fast as a simple Ketamine hydrochloride solution"}, {"measurement": "amount released in the first hour (initial burst)", "setting": "[3]; gel with 2.5% Ketamine loading factor, Franz cell with filter membrane", "result": "about 20%"}, {"measurement": "share of the total cumulative concentration in PBS achieved", "setting": "[3]; hyaluronic acid gel, no rate limiting membrane, after one hour", "result": "~50", "unit": "%"}, {"measurement": "duration of release of Ketamine from hyaluronic acid gel", "setting": "[3]; no membrane", "result": "over just a few hours"}]}]}
